pIC50: −log10 of the molar value.
What was measured:
Macrophage cell line [1] = test: Induction of prostaglandin production in human PBMC-differentiated macrophages after 24 hrs by ELISA; assay type: cell-based
Enterococcus faecium [2] = test: Toxicity in Enterococcus faecium ATCC 700221 up to 32 uM measured after 16 hrs; assay type: organism-based; details: in vitro
Escherichia coli [3] = test: Potentiation of tetracycline-induced antibacterial activity against Escherichia coli ATCC 43894 assessed as minimum modulatory concentration up to 32 uM measured after 16 hrs in presence of MIC/4 tetracycline; assay type: functional; details: ATCC 43894, 16 h, read-out: MEC
Staphylococcus aureus [4] = test: Potentiation of tetracycline-induced antibacterial activity against Staphylococcus aureus ATCC 33592 assessed as minimum modulatory concentration up to 32 uM measured after 16 hrs in presence of MIC/4 tetracycline; assay type: functional; details: ATCC 33592, 16 h, read-out: MEC
Pseudomonas aeruginosa [5] = test: Potentiation of geneticin-induced antibacterial activity against Pseudomonas aeruginosa ATCC BAA-2108 assessed as minimum modulatory concentration up to 32 uM measured after 16 hrs in presence of MIC/4 geneticin; assay type: functional; details: ATCC BAA-2108, 16 h, read-out: MEC
Streptococcus pyogenes [6] = test: Potentiation of ciprofloxacin-induced antibacterial activity against Streptococcus pyogenes ATCC 14289 assessed as minimum modulatory concentration up to 32 uM measured after 16 hrs in presence of MIC/4 ciprofloxacin; assay type: functional; details: ATCC 14289, 16 h, read-out: MEC
Enterococcus faecium [7] = test: Potentiation of ciprofloxacin-induced antibacterial activity against Enterococcus faecium ATCC 700221 assessed as minimum modulatory concentration up to 32 uM measured after 16 hrs in presence of MIC/4 ciprofloxacin; assay type: functional; details: ATCC 700221, 16 h, read-out: MEC
Enterococcus faecium [8] = test: Potentiation of tetracycline-induced antibacterial activity against Enterococcus faecium ATCC 700221 assessed as minimum modulatory concentration up to 32 uM measured after 16 hrs in presence of MIC/4 tetracycline; assay type: functional; details: ATCC 700221, 16 h, read-out: MEC
Klebsiella pneumoniae [9] = test: Potentiation of tetracycline-induced antibacterial activity against Klebsiella pneumoniae ATCC 13883 assessed as minimum modulatory concentration up to 32 uM measured after 16 hrs in presence of MIC/4 tetracycline; assay type: functional; details: ATCC 13883, 16 h, read-out: MEC
Macrophage cell line [10] = test: Induction of IL-8 production in human PBMC-differentiated macrophages after 24 hrs by ELISA; assay type: cell-based
Streptococcus pyogenes [11] = test: Potentiation of methicillin-induced antibacterial activity against Streptococcus pyogenes ATCC 14289 assessed as minimum modulatory concentration up to 32 uM measured after 16 hrs in presence of MIC/4 methicillin; assay type: functional; details: ATCC 14289, 16 h, read-out: MEC
Klebsiella pneumoniae [12] = test: Potentiation of erythromycin-induced antibacterial activity against Klebsiella pneumoniae ATCC 13883 assessed as minimum modulatory concentration up to 32 uM measured after 16 hrs in presence of MIC/4 erythromycin; assay type: functional; details: ATCC 13883, 16 h, read-out: MEC
Pseudomonas aeruginosa [13] = test: Potentiation of tetracycline-induced antibacterial activity against Pseudomonas aeruginosa ATCC BAA-2108 assessed as minimum modulatory concentration up to 32 uM measured after 16 hrs in presence of MIC/4 tetracycline; assay type: functional; details: ATCC BAA-2108, 16 h, read-out: MEC
Enterococcus faecium [14] = test: Potentiation of erythromycin-induced antibacterial activity against Enterococcus faecium ATCC 700221 assessed as minimum modulatory concentration up to 32 uM measured after 16 hrs in presence of MIC/4 erythromycin; assay type: functional; details: ATCC 700221, 16 h, read-out: MEC
Macrophage cell line [15] = test: Induction of IL-1beta production in human PBMC-differentiated macrophages after 24 hrs by ELISA; assay type: cell-based
Enterococcus faecium [16] = test: Potentiation of geneticin-induced antibacterial activity against Enterococcus faecium ATCC 700221 assessed as minimum modulatory concentration up to 32 uM measured after 16 hrs in presence of MIC/4 geneticin; assay type: functional; details: ATCC 700221, 16 h, read-out: MEC
Klebsiella pneumoniae [17] = test: Potentiation of ciprofloxacin-induced antibacterial activity against Klebsiella pneumoniae ATCC 13883 assessed as minimum modulatory concentration up to 32 uM measured after 16 hrs in presence of MIC/4 ciprofloxacin; assay type: functional; details: ATCC 13883, 16 h, read-out: MEC
Escherichia coli [18] = test: Toxicity in Escherichia coli ATCC 43894 up to 32 uM measured after 16 hrs; assay type: organism-based
Staphylococcus aureus [19] = test: Potentiation of methicillin-induced antibacterial activity against Staphylococcus aureus ATCC 33592 assessed as minimum modulatory concentration up to 32 uM measured after 16 hrs in presence of MIC/4 methicillin; assay type: functional; details: ATCC 33592, 16 h, read-out: MEC
Macrophage cell line [20] = test: Induction of TNFalpha production in human PBMC-differentiated macrophages after 24 hrs by ELISA; assay type: cell-based
Klebsiella pneumoniae [21] = test: Potentiation of geneticin-induced antibacterial activity against Klebsiella pneumoniae ATCC 13883 assessed as minimum modulatory concentration up to 32 uM measured after 16 hrs in presence of MIC/4 geneticin; assay type: functional; details: ATCC 13883, 16 h, read-out: MEC
Klebsiella pneumoniae [22] = test: Potentiation of methicillin-induced antibacterial activity against Klebsiella pneumoniae ATCC 13883 assessed as minimum modulatory concentration up to 32 uM measured after 16 hrs in presence of MIC/4 methicillin; assay type: functional; details: ATCC 13883, 16 h, read-out: MEC
Streptococcus pyogenes [23] = test: Toxicity in Streptococcus pyogenes ATCC 14289 up to 32 uM measured after 16 hrs; assay type: organism-based
Escherichia coli [24] = test: Potentiation of methicillin-induced antibacterial activity against Escherichia coli ATCC 43894 assessed as minimum modulatory concentration up to 32 uM measured after 16 hrs in presence of MIC/4 methicillin; assay type: functional; details: ATCC 43894, 16 h, read-out: MEC
Pseudomonas aeruginosa [25] = test: Potentiation of methicillin-induced antibacterial activity against Pseudomonas aeruginosa ATCC BAA-2108 assessed as minimum modulatory concentration up to 32 uM measured after 16 hrs in presence of MIC/4 methicillin; assay type: functional; details: ATCC BAA-2108, 16 h, read-out: MEC
Escherichia coli [26] = test: Potentiation of erythromycin-induced antibacterial activity against Escherichia coli ATCC 43894 assessed as minimum modulatory concentration up to 32 uM measured after 16 hrs in presence of MIC/4 erythromycin; assay type: functional; details: ATCC 43894, 16 h, read-out: MEC
Macrophage cell line [27] = test: Cytotoxicity against human PBMC-differentiated macrophages treated for 24 hrs followed by compound washout and measured after 48 hrs by MTT assay; assay type: cell-based
Streptococcus pyogenes [28] = test: Potentiation of tetracycline-induced antibacterial activity against Streptococcus pyogenes ATCC 14289 assessed as minimum modulatory concentration up to 32 uM measured after 16 hrs in presence of MIC/4 tetracycline; assay type: functional; details: ATCC 14289, 16 h, read-out: MEC
Pseudomonas aeruginosa [29] = test: Potentiation of erythromycin-induced antibacterial activity against Pseudomonas aeruginosa ATCC BAA-2108 assessed as minimum modulatory concentration up to 32 uM measured after 16 hrs in presence of MIC/4 erythromycin; assay type: functional; details: ATCC BAA-2108, 16 h, read-out: MEC
Escherichia coli [30] = test: Potentiation of ciprofloxacin-induced antibacterial activity against Escherichia coli ATCC 43894 assessed as minimum modulatory concentration up to 32 uM measured after 16 hrs in presence of MIC/4 ciprofloxacin; assay type: functional; details: ATCC 43894, 16 h, read-out: MEC
Staphylococcus aureus [31] = test: Toxicity in Staphylococcus aureus ATCC 33592 up to 32 uM measured after 16 hrs; assay type: organism-based
Pseudomonas aeruginosa [32] = test: Potentiation of ciprofloxacin-induced antibacterial activity against Pseudomonas aeruginosa ATCC BAA-2108 assessed as minimum modulatory concentration up to 32 uM measured after 16 hrs in presence of MIC/4 ciprofloxacin; assay type: functional; details: ATCC BAA-2108, 16 h, read-out: MEC
Escherichia coli [33] = test: Potentiation of geneticin-induced antibacterial activity against Escherichia coli ATCC 43894 assessed as minimum modulatory concentration up to 32 uM measured after 16 hrs in presence of MIC/4 geneticin; assay type: functional; details: ATCC 43894, 16 h, read-out: MEC

Row | Compound | Activity (Macrophage cell line [1]) | Activity (Enterococcus faecium [2]) | minimal effective concentration (Escherichia coli [3]) [µM] | minimal effective concentration (Staphylococcus aureus [4]) [µM] | minimal effective concentration (Pseudomonas aeruginosa [5]) [µM] | minimal effective concentration (Streptococcus pyogenes [6]) [µM] | minimal effective concentration (Enterococcus faecium [7]) [µM] | minimal effective concentration (Enterococcus faecium [8]) [µM] | minimal effective concentration (Klebsiella pneumoniae [9]) [µM] | Activity (Macrophage cell line [10]) | minimal effective concentration (Streptococcus pyogenes [11]) [µM] | minimal effective concentration (Klebsiella pneumoniae [12]) [µM] | minimal effective concentration (Pseudomonas aeruginosa [13]) [µM] | minimal effective concentration (Enterococcus faecium [14]) [µM] | Activity (Macrophage cell line [15]) | minimal effective concentration (Enterococcus faecium [16]) [µM] | minimal effective concentration (Klebsiella pneumoniae [17]) [µM] | Activity (Escherichia coli [18]) | minimal effective concentration (Staphylococcus aureus [19]) [µM] | Activity (Macrophage cell line [20]) | also measured
1 | O=C(O)c1cc(-c2ccc(F)cc2F)ccc1O [DIFLUNISAL] | Non-Toxic | Non-Toxic | > 32 | > 32 | > 32 | > 32 | > 32 | > 32 | > 32 | Non-Toxic | 16 | > 32 | > 32 | > 32 | Non-Toxic | > 32 | > 32 | Non-Toxic | 8 | Non-Toxic | minimal effective concentration (Klebsiella pneumoniae [21]): > 32 µM; minimal effective concentration (Klebsiella pneumoniae [22]): > 32 µM; Activity (Streptococcus pyogenes [23]): Non-Toxic; minimal effective concentration (Escherichia coli [24]): > 32 µM; minimal effective concentration (Pseudomonas aeruginosa [25]): > 32 µM; minimal effective concentration (Escherichia coli [26]): > 32 µM; pIC50 (Macrophage cell line [27]): 4.28; minimal effective concentration (Streptococcus pyogenes [28]): > 32 µM; minimal effective concentration (Pseudomonas aeruginosa [29]): > 32 µM; minimal effective concentration (Escherichia coli [30]): > 32 µM; Activity (Staphylococcus aureus [31]): Non-Toxic; minimal effective concentration (Pseudomonas aeruginosa [32]): > 32 µM; minimal effective concentration (Escherichia coli [33]): > 32 µM
2 | O=C(O)c1cc(-c2ccc(F)cc2F)ncc1O | Non-Toxic | Non-Toxic | > 32 | 2 | > 32 | > 32 | > 32 | 4 | > 32 | Non-Toxic | 2 | > 32 | > 32 | 4 | Non-Toxic | 4 | > 32 | Non-Toxic | 0.5 | Non-Toxic | minimal effective concentration (Klebsiella pneumoniae [21]): > 32 µM; minimal effective concentration (Klebsiella pneumoniae [22]): > 32 µM; Activity (Streptococcus pyogenes [23]): Non-Toxic; minimal effective concentration (Escherichia coli [24]): > 32 µM; minimal effective concentration (Pseudomonas aeruginosa [25]): 8 µM; minimal effective concentration (Escherichia coli [26]): > 32 µM; pIC50 (Macrophage cell line [27]): 4.01; minimal effective concentration (Streptococcus pyogenes [28]): 8 µM; minimal effective concentration (Pseudomonas aeruginosa [29]): 4 µM; minimal effective concentration (Escherichia coli [30]): > 32 µM; Activity (Staphylococcus aureus [31]): Non-Toxic; minimal effective concentration (Pseudomonas aeruginosa [32]): 4 µM; minimal effective concentration (Escherichia coli [33]): > 32 µM
3 | O=C(O)c1cc(-c2ccccc2)nc(-c2ccccc2)c1O | Non-Toxic | Non-Toxic | > 32 | 2 | > 32 | > 32 | > 32 | 2 | > 32 | Non-Toxic | 2 | > 32 | > 32 | 2 | Non-Toxic | 8 | > 32 | Non-Toxic | 4 | Non-Toxic | minimal effective concentration (Klebsiella pneumoniae [21]): > 32 µM; minimal effective concentration (Klebsiella pneumoniae [22]): > 32 µM; Activity (Streptococcus pyogenes [23]): Non-Toxic; minimal effective concentration (Escherichia coli [24]): > 32 µM; minimal effective concentration (Pseudomonas aeruginosa [25]): 8 µM; minimal effective concentration (Escherichia coli [26]): > 32 µM; pIC50 (Macrophage cell line [27]): 4.09; minimal effective concentration (Streptococcus pyogenes [28]): 8 µM; minimal effective concentration (Pseudomonas aeruginosa [29]): 8 µM; minimal effective concentration (Escherichia coli [30]): > 32 µM; Activity (Staphylococcus aureus [31]): Non-Toxic; minimal effective concentration (Pseudomonas aeruginosa [32]): 8 µM; minimal effective concentration (Escherichia coli [33]): > 32 µM
